Test results reported in PMC10724293, “New ruthenium-xanthoxylin complex eliminates colorectal cancer stem cells by targeting the heat shock protein 90 chaperone” (Cell Death & Disease, 2023).
Values joined by “and” are separate entries in the source; they are usually repeats but may differ in a detail not shown here. Identical values can stand only once.

Tests used:
4T1 = assay: Alamar blue cytotoxicity assay; type: cell-based, mouse; conditions: 72 h, read-out: IC50 and 95%CI
Description: (§1) The Alamar blue assay was used to determine cell viability as previously described. Cells were seeded into 96-well plates at a density of 7 × 10^3 cells per well for adherent cells or 3 × 10^4 cells per well for suspended cells. The drug was added to each well after 24 h of incubation for adherent cells or immediately for suspended cells and incubated for an additional 72 h. […] Each well received 100 µM resazurin (Sigma-Aldrich Co. St. Louis, MO, United States) four (for cell lines) or 24 (for primary culture) h before the end of the incubation. A SpectraMax 190 Microplate Reader (Molecular Devices, Sunnyvale, CA, USA) was used to measure absorbance at 570 and 600 nm.

B16-F10 = assay: Alamar blue cytotoxicity assay; type: cell-based, mouse; conditions: 72 h, read-out: IC50 and 95%CI
Description: as §1

[1] = tested on: CR02 (colorectal carcinoma); assay: Alamar blue viability of primary cancer cells; type: cell-based, human; conditions: primary CRC (second listed); 25 μg/ml (RXC 31.3 μM, DOX 46 μM); 96 h
Description: as §1, with “nm. […]” for “nm.”

HCT116 cells = assay: qPCR array of human cancer drug target genes; type: cell-based; parameters: key to RQ, gene BCL2 / RQ, gene IGF1R / RQ, gene KDR / RQ, gene EGFR / RQ, gene CTSB / RQ, gene RHOA / RQ, gene ESR1 / RQ, gene MDM2 / RQ, gene MDM4 / RQ, gene TOP2A / RQ, gene TOP2B / RQ, gene ATF2 / RQ, gene NFKB1 / RQ, gene TP53 / RQ, gene AURKC / RQ, gene CDC25A / RQ, gene CDK1 / RQ, gene CDK2 / RQ, gene CDK5 / RQ, gene CDK8 / RQ, gene NTN3 / RQ, gene HRAS / RQ, gene KRAS: 2^−ΔΔCT relative quantification vs DMSO control (calibrator = 1); conditions: 10 µM, 12 h; CTL = 1.0
Description: Total RNA was isolated using the RNeasy Plus Mini Kit (Qiagen; Hilden, Germany) according to the manufacturer’s instructions. The RNA was tested for purity and quantified using a NanoDrop® 1000 spectrophotometer (Thermo Fisher Scientific, Waltham, Massachusetts, USA). The Superscript VILOTM Kit was used for RNA reverse transcription (Invitrogen Corporation; Waltham, MA, USA). TaqMan® array human cancer drug targets 96-well plate, fast (ID RPRWENH, Applied BiosystemsTM, Foster City, CA, USA) was used for gene expression quantification by qPCR. The reactions were carried out in an ABI ViiA7 system (Applied BiosystemsTM).
The cycle conditions were 2 min at 50 °C, 10 min at 95 °C, and 40 cycles of 15 s at 95 °C and 1 min at 60 °C. All experiments were carried out in DNase/RNase-free environments. The 2^−ΔΔCT method was used to calculate the relative quantification (RQ) of mRNA expression using Gene Expression SuiteTM Software (Applied BiosystemsTM), and cells treated with the negative control (0.2% DMSO) served as a calibrator. The RQs of the reference genes HPRT1, TFRC and YWHAZ were used to normalize the reactions.

cis-[Ru(phen)2(xant)](PF6) [RXC]
IC50 (4T1): 9.1 µM
IC50 (B16-F10): 2580 nM
reduced cell viability [1]: 37.4%
RQ, gene ABCC1 (HCT116 cells): 0.777
RQ, gene AKT1 (HCT116 cells): 0.624
RQ, gene AKT2 (HCT116 cells): 0.896
RQ, gene ATF2 (HCT116 cells): 0.856
RQ, gene AURKA (HCT116 cells): 0.343
RQ, gene AURKB (HCT116 cells): 0.562
RQ, gene AURKC (HCT116 cells): 0.498
RQ, gene BCL2 (HCT116 cells): 0.944
RQ, gene BIRC5 (HCT116 cells): 0.499
RQ, gene CDC25A (HCT116 cells): 1.174
RQ, gene CDK1 (HCT116 cells): 1.021
RQ, gene CDK2 (HCT116 cells): 1.057
RQ, gene CDK4 (HCT116 cells): 1.065
RQ, gene CDK5 (HCT116 cells): 0.446
RQ, gene CDK7 (HCT116 cells): 1.621
RQ, gene CDK8 (HCT116 cells): 0.943
RQ, gene CDK9 (HCT116 cells): 0.986
RQ, gene CTSB (HCT116 cells): 1.307
RQ, gene CTSD (HCT116 cells): 0.826
RQ, gene CTSL (HCT116 cells): 1.073
RQ, gene CTSS (HCT116 cells): 0.500
RQ, gene EGFR (HCT116 cells): 1.135
RQ, gene ERBB2 (HCT116 cells): 0.312
RQ, gene ERBB3 (HCT116 cells): 0.814
RQ, gene ESR1 (HCT116 cells): 1.523
RQ, gene ESR2 (HCT116 cells): 1.673
RQ, gene FLT4 (HCT116 cells): 3.841
RQ, gene GRB2 (HCT116 cells): 1.220
RQ, gene GSTP1 (HCT116 cells): 0.609
RQ, gene HDAC1 (HCT116 cells): 0.509
RQ, gene HDAC2 (HCT116 cells): 0.509
RQ, gene HDAC3 (HCT116 cells): 0.879
RQ, gene HDAC4 (HCT116 cells): 1.233
RQ, gene HDAC6 (HCT116 cells): 0.969
RQ, gene HDAC7 (HCT116 cells): 0.975
RQ, gene HDAC8 (HCT116 cells): 0.826
RQ, gene HDAC11 (HCT116 cells): 1.433
RQ, gene HIF1A (HCT116 cells): 0.663
RQ, gene HRAS (HCT116 cells): 1.867
RQ, gene HSP90AA1 (HCT116 cells): 0.353 and 0.35
RQ, gene HSP90B1 (HCT116 cells): 0.285 and 0.28
RQ, gene IGF1R (HCT116 cells): 1.146
RQ, gene IRF5 (HCT116 cells): 1.472
RQ, gene KDR (HCT116 cells): 0.896
RQ, gene KRAS (HCT116 cells): 2.847
RQ, gene MDM2 (HCT116 cells): 2.327
RQ, gene MDM4 (HCT116 cells): 1.960
RQ, gene MTOR (HCT116 cells): 0.595
RQ, gene NFKB1 (HCT116 cells): 1.055
RQ, gene NRAS (HCT116 cells): 0.893
RQ, gene NTN3 (HCT116 cells): 2.364
RQ, gene PARP1 (HCT116 cells): 0.485
RQ, gene PARP4 (HCT116 cells): 0.791
RQ, gene PDGFRB (HCT116 cells): 2.249
RQ, gene PIK3C2A (HCT116 cells): 1.177
RQ, gene PIK3C3 (HCT116 cells): 1.485
RQ, gene PIK3CA (HCT116 cells): 0.956
RQ, gene PLK1 (HCT116 cells): 0.890
RQ, gene PLK2 (HCT116 cells): 1.023
RQ, gene PLK3 (HCT116 cells): 1.749
RQ, gene PLK4 (HCT116 cells): 1.081
RQ, gene PRKCA (HCT116 cells): 0.567
RQ, gene PRKCB (HCT116 cells): 0.993
RQ, gene PRKCD (HCT116 cells): 1.557
RQ, gene PRKCE (HCT116 cells): 1.461
RQ, gene PTGS2 (HCT116 cells): 1.461
RQ, gene RHOA (HCT116 cells): 0.937
RQ, gene RHOB (HCT116 cells): 1.762
RQ, gene TERT (HCT116 cells): 0.866
RQ, gene TNKS (HCT116 cells): 2.951
RQ, gene TOP2A (HCT116 cells): 0.769
RQ, gene TOP2B (HCT116 cells): 1.055
RQ, gene TP53 (HCT116 cells): 1.058
RQ, gene TXN (HCT116 cells): 1.184
RQ, gene TXNRD1 (HCT116 cells): 3.038
lung histology (2 mg/kg, one animal): hemorrhage with hemosiderin deposits
hematological analysis (RXC 2 mg/kg, DOX 0.8 mg/kg, i.p. once a day for 2 weeks): reduction in erythrocytes
animals died during the treatment (RXC 2 mg/kg, DOX 0.8 mg/kg, i.p. once a day for 2 weeks, n = 15 per group): four
body weight (RXC 2 mg/kg, DOX 0.8 mg/kg, i.p. once a day for 2 weeks, p < 0.05): decrease in body weight
liver histology (RXC 2 mg/kg, DOX 0.8 mg/kg, mainly in treated animals): focal areas of hepatocyte coagulation necrosis
kidney histology (RXC 2 mg/kg, DOX 0.8 mg/kg, more evident than in control): focal areas of coagulation necrosis of the renal cortex tubules
